Results reported in ChEMBL document CHEMBL4808247 (Bioorg Med Chem, 2021).
Values after ≈ are worked out from the molar mass of the structure shown. One block for each molecule: values may come before it.

Columns and labels:
Enterobacter cloacae [1] = assay: Antibacterial activity against Enterobacter cloacae IR32 producing class B beta-lactamase, NDM1 assessed as reduction in microbial growth incubated for 16 to 20 hrs by broth microdilution method; assay type: functional; details: time 16-20 hrs
Escherichia coli [2] = assay: Antibacterial activity against Escherichia coli NIHJ JC-2 assessed as reduction in microbial growth incubated for 16 to 20 hrs by broth microdilution method; assay type: functional; details: time 16-20 hrs
Escherichia coli [3] = assay: Antibacterial activity against Escherichia coli SR34100 producing class A beta-lactamase, CTX-M-15 assessed as reduction in microbial growth incubated for 16 to 20 hrs by broth microdilution method; assay type: functional; details: time 16-20 hrs
Enterobacter cloacae [4] = assay: Antibacterial activity against Enterobacter cloacae SR36276 producing class C beta-lactamase, AmpC assessed as reduction in microbial growth incubated for 16 to 20 hrs by broth microdilution method; assay type: functional; details: time 16-20 hrs
Klebsiella pneumoniae [5] = assay: Antibacterial activity against Klebsiella pneumoniae PLE producing class D beta-lactamase, OXA-48 assessed as reduction in microbial growth incubated for 16 to 20 hrs by broth microdilution method; assay type: functional; details: time 16-20 hrs
Klebsiella pneumoniae [6] = assay: Antibacterial activity against Klebsiella pneumoniae JMI:211 producing class A beta-lactamase, KPC-2 assessed as reduction in microbial growth incubated for 16 to 20 hrs by broth microdilution method; assay type: functional; details: time 16-20 hrs
[7] = Inhibition of CMY-2 in Escherichia coil BL21 assessed as inhibition of nitrocefin hydrolysis measured every 3 mins for 15 mins by UV spectrophotometer analysis; design: species or system Escherichia coli BL21
Klebsiella pneumoniae [8] = assay: Antibacterial activity against Klebsiella pneumoniae ATCC13883 assessed as reduction in microbial growth incubated for 16 to 20 hrs by broth microdilution method; assay type: functional; details: time 16-20 hrs
Enterobacterales [9] = assay: Antimicrobial activity against Enterobacterales producing KPC assessed as reduction in microbial growth measured after 16 to 20 hrs in presence of avibactam by broth microdilution method; assay type: functional; details: time 16-20 hrs
Enterobacterales [10] = assay: Antimicrobial activity against Enterobacterales producing NDM assessed as reduction in microbial growth measured after 16 to 20 hrs in presence of avibactam by broth microdilution method; assay type: functional; details: time 16-20 hrs
Enterobacterales [11] = assay: Antimicrobial activity against Enterobacterales producing VIM assessed as reduction in microbial growth measured after 16 to 20 hrs in presence of avibactam by broth microdilution method; assay type: functional; details: time 16-20 hrs
Enterobacterales [12] = assay: Antimicrobial activity against Enterobacterales producing OXA-48 assessed as reduction in microbial growth measured after 16 to 20 hrs in presence of avibactam by broth microdilution method; assay type: functional; details: time 16-20 hrs
Escherichia coli [13] = assay: Antibacterial activity against Escherichia coli NIHJ JC-2 strain assessed as reduction in microbial growth incubated for 16 to 20 hrs in presence of avibactam by broth microdilution method; assay type: functional; details: time 16-20 hrs
Escherichia coli [14] = assay: Antibacterial activity against Escherichia coli BL21(DE3) transfected with pET9a vector harboring class D beta lactamase, OXA-48 incubated for 16 to 20 hrs by broth microdilution method; assay type: functional; details: time 16-20 hrs
Escherichia coli [15] = assay: Antibacterial activity against Escherichia coli BL21(DE3) transfected with pET9a empty vector incubated for 16 to 20 hrs by broth microdilution method; assay type: functional; details: time 16-20 hrs
Escherichia coli [16] = assay: Antibacterial activity against Escherichia coli BL21(DE3) transfected with pET9a vector harboring class A beta lactamase, CTX-M-15 incubated for 16 to 20 hrs by broth microdilution method; assay type: functional; details: time 16-20 hrs
Escherichia coli [17] = assay: Antibacterial activity against Escherichia coli BL21(DE3) transfected with pET9a vector harboring class B beta lactamase, NDM-1 incubated for 16 to 20 hrs by broth microdilution method; assay type: functional; details: time 16-20 hrs
Escherichia coli [18] = assay: Antibacterial activity against Escherichia coli BL21(DE3) transfected with pET9a vector harboring class C beta lactamase, AmpC incubated for 16 to 20 hrs by broth microdilution method; assay type: functional; details: time 16-20 hrs
Klebsiella pneumoniae [19] = assay: Antibacterial activity against Klebsiella pneumonia ATCC 13883 infected in cyclophosphamide-induced neutropenic Jcl:ICR mouse model assessed as log10 reduction in CFU at 10 mg/kg, sc administered at 2, 5 and 8 hrs after infection and measured at 10 hrs after infection; assay type: functional
Klebsiella pneumoniae [20] = assay: Antibacterial activity against Klebsiella pneumonia ATCC 13883 infected in cyclophosphamide-induced neutropenic Jcl:ICR mouse model assessed as log10 reduction in CFU at 3 mg/kg, sc administered at 2, 5 and 8 hrs after infection and measured at 10 hrs after infection; assay type: functional
Escherichia coli [21] = assay: Antibacterial activity against Escherichia coli SR34100 producing class A beta lactamase, CTX-M-15 assessed as reduction in microbial growth incubated for 16 to 20 hrs in presence of avibactam by broth microdilution method
Enterobacter cloacae [22] = assay: Antibacterial activity against Enterobacter cloacae IR32 producing class B beta-lactamase, NDM-1 assessed as reduction in microbial growth incubated for 16 to 20 hrs in presence of avibactam by broth microdilution method; assay type: functional; details: time 16-20 hrs
Enterobacter cloacae [23] = assay: Antibacterial activity against Enterobacter cloacae SR36276 producing class C beta lactamase, AmpC assessed as reduction in microbial growth incubated for 16 to 20 hrs in presence of avibactam by broth microdilution method; assay type: functional; details: time 16-20 hrs
Klebsiella pneumoniae [24] = assay: Antibacterial activity against Klebsiella pneumoniae PLE producing class D beta lactamase, OXA-48 assessed as reduction in microbial growth incubated for 16 to 20 hrs in presence of avibactam by broth microdilution method; assay type: functional; details: time 16-20 hrs
Klebsiella pneumoniae [25] = assay: Antibacterial activity against Klebsiella pneumoniae JMI:211 producing class A beta lactamase, KPC-2 assessed as reduction in microbial, growth incubated for 16 to 20 hrs in presence of avibactam by broth microdilution method; assay type: functional; details: time 16-20 hrs
Enterobacter cloacae [26] = assay: Antibacterial activity against Enterobacter cloacae 1,261,347 producing class A beta lactamase, PER-2 assessed as reduction in microbial growth incubated for 16 to 20 hrs in presence of avibactam by broth microdilution method; assay type: functional; details: time 16-20 hrs

MIC (Enterobacter cloacae [1]): 0.5 µg/mL
MIC (Escherichia coli [2]): 0.25 µg/mL
MIC (Escherichia coli [3]): 1 µg/mL
MIC (Enterobacter cloacae [4]): 0.25 µg/mL
MIC (Klebsiella pneumoniae [5]): 1 µg/mL
MIC (Klebsiella pneumoniae [6]): 0.5 µg/mL
SMILES: C[C@H](O/N=C(\C(=O)N[C@@H]1C(=O)N2[C@@H]1[S@@+]([O-])C[C@@H]1CC(=O)O[C@@]12C(=O)O)c1csc(N)n1)C(=O)O (stereo in doubt)

MIC (Enterobacter cloacae [1]): 0.25 µg/mL
MIC (Escherichia coli [2]): 0.25 µg/mL
MIC (Escherichia coli [3]): 0.5 µg/mL
MIC (Enterobacter cloacae [4]): 0.25 µg/mL
MIC (Klebsiella pneumoniae [5]): 0.5 µg/mL
MIC (Klebsiella pneumoniae [6]): 0.5 µg/mL
SMILES: Nc1nc(/C(=N/OC2(C(=O)O)CC2)C(=O)N[C@@H]2C(=O)N3[C@@H]2[S@@+]([O-])C[C@@H]2CC(=O)O[C@@]23C(=O)O)cs1 (stereo in doubt)

MIC (Enterobacter cloacae [1]): 0.125 µg/mL
MIC (Escherichia coli [2]): 0.063 µg/mL
MIC (Escherichia coli [3]): 0.25 µg/mL
MIC (Enterobacter cloacae [4]): 8 µg/mL
MIC (Klebsiella pneumoniae [5]): 1 µg/mL
MIC (Klebsiella pneumoniae [6]): 0.125 µg/mL
Ki [7]: 400 nM
MIC (Klebsiella pneumoniae [8]): 0.125 µg/mL
SMILES: Nc1nc(/C(=N/OCC(=O)O)C(=O)N[C@@H]2C(=O)N3[C@@H]2SC[C@@H]2CC(=O)O[C@@]23C(=O)O)cs1 (stereo in doubt)

MIC (Enterobacter cloacae [1]): 0.5 µg/mL
MIC (Escherichia coli [2]): 0.25 µg/mL
MIC (Escherichia coli [3]): 0.5 µg/mL
MIC (Enterobacter cloacae [4]): 1 µg/mL
MIC (Klebsiella pneumoniae [5]): 4 µg/mL
MIC (Klebsiella pneumoniae [6]): 0.5 µg/mL
SMILES: CCO/N=C(\C(=O)N[C@@H]1C(=O)N2[C@@H]1[S@@+]([O-])C[C@@H]1CC(=O)O[C@@]12C(=O)O)c1csc(N)n1 (stereo in doubt)

MIC (Enterobacter cloacae [1]): 0.25 µg/mL
MIC (Escherichia coli [2]): 0.125 µg/mL
MIC (Escherichia coli [3]): 0.25 µg/mL
MIC (Enterobacter cloacae [4]): 8 µg/mL
MIC (Klebsiella pneumoniae [5]): 1 µg/mL
MIC (Klebsiella pneumoniae [6]): 0.5 µg/mL
SMILES: Nc1nc(/C(=N/OC2(C(=O)O)CC2)C(=O)N[C@@H]2C(=O)N3[C@@H]2SC[C@@H]2CC(=O)O[C@@]23C(=O)O)cs1 (stereo in doubt)

MIC (Enterobacter cloacae [1]): 0.125 µg/mL
MIC (Escherichia coli [2]): 0.125 µg/mL
MIC (Escherichia coli [3]): 0.5 µg/mL
MIC (Enterobacter cloacae [4]): 0.25 µg/mL
MIC (Klebsiella pneumoniae [5]): 0.5 µg/mL
MIC (Klebsiella pneumoniae [6]): 0.25 µg/mL
SMILES: C[C@@H](O/N=C(\C(=O)N[C@@H]1C(=O)N2[C@@H]1[S@@+]([O-])C[C@@H]1CC(=O)O[C@@]12C(=O)O)c1csc(N)n1)C(=O)O (stereo in doubt)

MIC (Enterobacter cloacae [1]): 0.25 µg/mL
MIC (Escherichia coli [2]): 0.125 µg/mL
MIC (Escherichia coli [3]): 0.5 µg/mL
MIC (Enterobacter cloacae [4]): 16 µg/mL
MIC (Klebsiella pneumoniae [5]): 0.5 µg/mL
MIC (Klebsiella pneumoniae [6]): 0.25 µg/mL
SMILES: C[C@H](O/N=C(\C(=O)N[C@@H]1C(=O)N2[C@@H]1SC[C@@H]1CC(=O)O[C@@]12C(=O)O)c1csc(N)n1)C(=O)O (stereo in doubt)

SMILES: C[C@H]1[C@H](NC(=O)/C(=N\OC(C)(C)C(=O)O)c2csc(N)n2)C(=O)N1S(=O)(=O)O (stereo in doubt) [AZTREONAM]
MIC50 (Enterobacterales [9]): 0.5 µg/mL
MIC90 (Enterobacterales [9]): 1 µg/mL
MIC50 (Enterobacterales [10]): 0.25 µg/mL
MIC90 (Enterobacterales [10]): 1 µg/mL
MIC50 (Enterobacterales [11]): 0.25 µg/mL
MIC90 (Enterobacterales [11]): 2 µg/mL
MIC50 (Enterobacterales [12]): 0.063 µg/mL
MIC90 (Enterobacterales [12]): 0.25 µg/mL
MIC (Escherichia coli [13]): 0.125 µg/mL

SMILES: CC(C)(O/N=C(\C(=O)N[C@@H]1C(=O)N2C(C(=O)[O-])=C(C[n+]3ccccc3)CS[C@H]12)c1csc(N)n1)C(=O)O [CEFTAZIDIME]
MIC (Enterobacter cloacae [1]): > 32 µg/mL
MIC (Escherichia coli [14]): 0.063 µg/mL (≈ 0.115 µM)
MIC (Escherichia coli [15]): 0.063 µg/mL (≈ 0.115 µM)
MIC (Escherichia coli [16]): 0.25 µg/mL (≈ 0.457 µM)
MIC (Escherichia coli [17]): > 16 µg/mL
MIC (Escherichia coli [18]): 0.25 µg/mL (≈ 0.457 µM)
MIC (Escherichia coli [2]): 0.25 µg/mL
MIC (Escherichia coli [3]): > 32 µg/mL
MIC (Enterobacter cloacae [4]): > 32 µg/mL
MIC (Klebsiella pneumoniae [5]): 1 µg/mL
MIC (Klebsiella pneumoniae [8]): 0.25 µg/mL
Activity (Klebsiella pneumoniae [19]): 3.05 log10CFU
Activity (Klebsiella pneumoniae [20]): 2.67 log10CFU
MIC50 (Enterobacterales [9]): 4 µg/mL
MIC90 (Enterobacterales [9]): > 64 µg/mL
MIC50 (Enterobacterales [10]): > 64 µg/mL
MIC90 (Enterobacterales [10]): > 64 µg/mL
MIC50 (Enterobacterales [11]): > 64 µg/mL
MIC90 (Enterobacterales [11]): > 64 µg/mL
MIC50 (Enterobacterales [12]): 0.125 µg/mL
MIC90 (Enterobacterales [12]): 4 µg/mL
MIC (Escherichia coli [13]): 0.25 µg/mL
MIC (Escherichia coli [21]): 1 µg/mL
MIC (Enterobacter cloacae [22]): > 32 µg/mL
MIC (Enterobacter cloacae [23]): 1 µg/mL
MIC (Klebsiella pneumoniae [24]): 0.25 µg/mL
MIC (Klebsiella pneumoniae [25]): 1 µg/mL
MIC (Enterobacter cloacae [26]): > 32 µg/mL
